In paper PMC12794274, “Therapeutic potential of Sheng-Xian-Tang in doxorubicin-induced chronic heart failure by regulation of phenylalanine metabolism disruption” (Chinese Medicine, 2026):
pKd: −log10 of the molar value. “And” between values parts separate entries of the source, which are not always exact repeats. Equal entries are not always repeated.

Columns and labels:
[1] = system: cardiac tissues of DOX-induced CHF rats; assay: Heart histopathology (H&E, Masson) and TUNEL apoptosis detection; assay type: in vivo, rat
Protocol: Cardiac tissues were fixed in 4% paraformaldehyde, embedded in paraffin, and sectioned at 4–5 μm thickness. Hematoxylin and eosin (H&E) staining was performed to assess histopathological changes, while Masson’s trichrome staining was used to evaluate cardiac fibrosis. Apoptosis in cardiac tissues was detected using a TUNEL assay kit (C1088, Beyotime, Shanghai, China).

Rat body weight = assay type: in vivo; conditions: CHF rats, treatment vs DOX group, experiment I
Protocol: Experiment I, 48 rats were randomly divided into six groups: (1) the CON group; (2) the DOX group; (3) the DOX + enalapril (ENP, positive control, 1.8 mg/kg) group; (4) the DOX + SXT at low dose group (4 g/kg); (5) the DOX + SXT at middle dose group (8 g/kg); and […] the DOX + SXT at high dose group (16 g/kg). Except those rats in the CON group, the remaining rats received DOX at a 2.5 mg/kg per injection to a cumulative dose of 15 mg/kg. The dose of SXT for the low-dose group was set at 4 g/kg, based on the minimum human clinical daily dose (48.5 g, Table S2) converted to an equivalent rat dose using body surface area normalization (48.5 g/70 kg × 6.3 ≈ 4.4 g/kg, rounded to 4 g/kg). To evaluate a clear dose–response relationship, the medium and high doses were established at 8 g/kg and 16 g/kg, respectively, corresponding to 2 fold and 4 fold the low dose. […] Heart function was monitored by echocardiography analysis at day 39, and the CHF model was considered to be successfully established when the left ventricular ejection fraction (LVEF%) values were reduced to 50%. […]

DOX-induced CHF rats [2] = assay: Serum biochemical parameters (BNP, CK, LDH, ALT, AST) by ELISA kits; assay type: in vivo, rat
Protocol: (§1) Serum biochemical parameters including brain natriuretic peptide (BNP), creatine kinase (CK), lactate dehydrogenase (LDH), alanine aminotransferase (ALT), and aspartate aminotransferase (AST) were measured using commercial ELISA kits (Nanjing Jiancheng Bioengineering Institute, Nanjing, China) according to the manufacturer's instructions. Superoxide dismutase (SOD), and malondialdehyde (MDA) levels in liver and heart tissues were measured using assay kits from […] Biotechnology (Changsha, China). Phenylalanine and tyrosine concentrations in the cell were determined using an ELISA kit from Abmart (Shanghai, China).

[3] = system: DOX-induced chronic heart failure (CHF) rat model; assay: Echocardiography (LVEF%, LVFS%) in DOX-induced CHF rats; assay type: in vivo
Protocol: Experiment I, 48 rats were randomly divided into six groups: (1) the CON group; (2) the DOX group; (3) the DOX + enalapril (ENP, positive control, 1.8 mg/kg) group; (4) the DOX + SXT at low dose group (4 g/kg); (5) the DOX + SXT at middle dose group (8 g/kg); and […] the DOX + SXT at high dose group (16 g/kg). Except those rats in the CON group, the remaining rats received DOX at a 2.5 mg/kg per injection to a cumulative dose of 15 mg/kg. The dose of SXT for the low-dose group was set at 4 g/kg, based on the minimum human clinical daily dose (48.5 g, Table S2) converted to an equivalent rat dose using body surface area normalization (48.5 g/70 kg × 6.3 ≈ 4.4 g/kg, rounded to 4 g/kg). To evaluate a clear dose–response relationship, the medium and high doses were established at 8 g/kg and 16 g/kg, respectively, corresponding to 2 fold and 4 fold the low dose. This gradient dosing strategy is consistent with the Technical Guidelines for Pharmacodynamic Studies of Traditional Chinese Medicine and the Technical Guidelines for General Pharmacology Studies of Traditional Chinese Medicine and Natural Drugs, and is further supported by our previous study on the effective dose range of SXT in a rat model of doxorubicin-induced chronic heart failure. Heart function was monitored by echocardiography analysis at day 39, and the CHF model was considered to be successfully established when the left ventricular ejection fraction (LVEF%) values were reduced to 50%. Urinary samples were collected at five time points (0, 10, 20, 30, and 39 d), while fecal samples were collected before the rats were euthanized. Subsequently, the rats were anesthetized, and blood samples and heart and liver tissues were collected. All bio-samples were stored at − 80 °C until analysis.
Experiment II was conducted to specifically confirm the exacerbated cardiac abnormality of phenylalanine in the DOX-induced CHF rats. […] Heart function was detected as in the experiment I.
Echocardiographic (ECG) measurements were performed using M-mode tracings and continuous Doppler with a Vevo 2100 system (Visual Sonics, Toronto, ON, Canada). Rats were anesthetized with isoflurane prior to imaging. Cardiac function indices including left ventricular ejection fraction (LVEF%) and left ventricular fractional shortening (LVFS%) were measured and recorded.

phenylalanine metabolism = assay: Phenylalanine and tyrosine levels in rat serum, liver and heart tissues (LC/MS); assay type: in vivo
Protocol: Phenylalanine and tyrosine in the different rat bio-samples were analyzed by LC/MS using an Agilent 1290 Ultra high-performance liquid chromatography (UHPLC) and an Agilent 6460 triple-quadrupole tandem mass spectrometer (QQQ-MS) (Agilent Inc, USA). Data were acquired by using an Agilent Zorbax SB-C18 column (3.0 × 150 mm, 5 μm) as described previously.

H9C2 cells = assay: Effect of phenylalanine on doxorubicin-induced H9C2 cells; assay type: cell-based; conditions: DOX 1 µM + Phe 18.5 µM, 24 h
Protocol: H9C2 cells were seeded in 96-well plates at a density of 5 × 10⁴ cells per well (in 100 µL medium) and allowed to adhere for 12 h. The cells were then treated for 24 h with either DOX (1 µM) alone or DOX (1 µM) in combination with Phe (18.5 µM; a concentration derived from the dosing conversion ratio used in prior rat experiments). An untreated group served as the control. Cell viability was determined by measuring the optical density at 450 nm using a microplate reader. The levels of CK, LDH, SOD, and MDA were quantified using commercial assay kits.

DOX-induced CHF rats [4] = assay: Oxidative stress in heart and liver tissue (SOD, MDA, ROS, PTGS2); assay type: in vivo, rat; conditions: experiment II
Protocol: as §1, with “Immunofluorescence staining was performed on tissue sections to detect phenylalanine hydroxylase (PAH), prostaglandin-endoperoxide synthase 2 (PTGS2), and reactive oxygen species (ROS). Primary antibodies against PAH and PTGS2 were used, while ROS was detected using the DCFH-DA probe. Nuclei were counterstained with DAPI. Images were captured using a fluorescence microscope. Serum” for “Serum”

heart tissues = assay: Transmission electron microscopy of heart tissue; assay type: in vivo, rat; conditions: experiment II; DOX alone, co-treatments vs DOX
Protocol: Freshly excised heart tissues were immediately fixed in 2.5% glutaraldehyde at 4 °C overnight. After washing with 0.1 M cacodylate trihydrate buffer, samples were post-fixed with 1% osmium tetroxide for 1 h. Tissues were then dehydrated through a graded ethanol series, incubated in acetone, and embedded in epoxy resin. Ultrathin sections were mounted on copper grids and imaged using a Hitachi HT7800 transmission electron microscope (Tokyo, Japan).

[5] = system: phenylalanine hydroxylase (PAH); assay: PAH expression in liver and heart (western blotting, immunofluorescence); assay type: in vivo, rat; conditions: experiment II; DOX vs CON, co-treatments vs DOX
Protocol: Immunofluorescence staining was performed on tissue sections to detect phenylalanine hydroxylase (PAH), prostaglandin-endoperoxide synthase 2 (PTGS2), and reactive oxygen species (ROS). Primary antibodies against PAH and PTGS2 were used, while ROS was detected using the DCFH-DA probe. Nuclei were counterstained with DAPI. Images were captured using a fluorescence microscope.
Protein was extracted from liver or heart tissue samples (30 mg) using lysis buffer. Total protein concentration was determined using a BCA protein assay kit (Thermo Fisher Scientific, USA). Equal amounts of protein from each sample were separated on 10–12% SDS-PAGE gels and transferred to PVDF membranes. Membranes were blocked with quick blocking buffer for 30 min, then incubated with anti-PAH primary antibody (1:1000 dilution) overnight at 4 °C. After washing, membranes were incubated with a secondary antibody for 1 h at 37 °C. Protein bands were visualized using an Odyssey infrared imaging system (JS-1070, Shanghai Peiqing Science & Technology Co., Ltd, China). Band intensities were quantified using ImageJ software.

[6] = molecular target: Phenylalanine hydroxylase (PAH) protein (Homo sapiens, UniProt P00439); assay: Surface Plasmon Resonance (SPR) analysis, Biacore T200; assay type: binding; conditions: PAH immobilized on CM5 chip, read-out: dissociation constant (Kd)
Protocol: SPR assays were conducted using a Biacore T200 system (GE Healthcare Life Sciences, USA). Phenylalanine hydroxylase (PAH) protein was immobilized on CM5 sensor chips using an amine-coupling kit (BR100050, GE Healthcare) following standard procedures. […] Samples were injected over reference and PAH-immobilized flow cells at a flow rate of 30 μL/min, with 120 s contact time and 120 s dissociation time. Kinetic parameters were calculated using Biacore T200 evaluation software.

[7] = molecular target: T1, PAH protein in AML12 cells (Mus musculus, UniProt P16331); assay: Cellular Thermal Shift Assay (CETSA); assay type: cell-based; conditions: neomangiferin 10 μM, 24 h, 37-72 °C, vs control group
T1 construct: endogenous in cells; host or cells: AML12 mouse hepatocytes
T1 sequence (P16331 1-453): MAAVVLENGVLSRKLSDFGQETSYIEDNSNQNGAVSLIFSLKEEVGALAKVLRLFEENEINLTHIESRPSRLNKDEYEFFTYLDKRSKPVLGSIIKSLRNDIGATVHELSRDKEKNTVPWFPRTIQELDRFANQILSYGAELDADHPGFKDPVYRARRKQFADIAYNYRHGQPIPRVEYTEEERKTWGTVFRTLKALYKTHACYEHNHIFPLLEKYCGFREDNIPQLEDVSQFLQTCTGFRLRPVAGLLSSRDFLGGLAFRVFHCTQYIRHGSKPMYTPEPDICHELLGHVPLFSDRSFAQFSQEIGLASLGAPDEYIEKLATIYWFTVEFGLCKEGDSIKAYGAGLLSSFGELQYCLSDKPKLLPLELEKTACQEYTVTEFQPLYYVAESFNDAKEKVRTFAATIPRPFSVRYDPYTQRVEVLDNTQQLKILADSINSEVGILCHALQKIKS
Protocol: AML12 cells (5 × 10^5 cells/well) in 6-well plates were divided into two groups, with 8 wells in each group. […] After 24 h, 8 samples of cells from each of the two groups were incubated at specific temperatures (37, 42, 47, 52, 57, 62, 67, and 72 °C) for 3 min and each sample was performed for western blotting analysis.

AML12 cells [8] = assay: AML12 cell viability (CCK8); assay type: cell-based
Protocol: (§2) Mouse hepatocellular cell lines (AML12), purchased from the Shanghai Cell Bank of Chinese Academy of Sciences (Shanghai, China), were cultured in Dulbecco’s Modified Eagle Medium (DMEM) supplemented with 10% fetal bovine serum (FBS) and 2 mM L-glutamine and 1% pyruvate and maintained at 37 °C in a […], 5% CO2 incubator. Cells were seeded at a density of 5 × 10^5 cells/well in 6-well plates. […] Cells’ survival rate was detected by Cell Counting Kit-8 (CCK8) Reagents (Thermo Scientific, Singapore).

AML12 cells [9] = assay type: cell-based, mouse; conditions: AML12 cells, dose-dependent
Protocol: as §2

[10] = system: PAH activity in AML12 cells; assay type: cell-based
Protocol: Serum biochemical parameters including brain natriuretic peptide (BNP), creatine kinase (CK), lactate dehydrogenase (LDH), alanine aminotransferase (ALT), and aspartate aminotransferase (AST) were measured using commercial ELISA kits (Nanjing Jiancheng Bioengineering Institute, Nanjing, China) according to the manufacturer’s instructions. Superoxide dismutase (SOD), and malondialdehyde (MDA) levels in liver and heart tissues were measured using assay kits from Aifang Biotechnology (Changsha, China). Phenylalanine and tyrosine concentrations in the cell were determined using an ELISA kit from Abmart (Shanghai, China).
as §2

[11] = DOX + phenylalanine vs DOX group
[12] = experiment II, co-treatment vs DOX group

Phenylalanine hydroxylase (PAH) protein, sequence (P00439 whole entry): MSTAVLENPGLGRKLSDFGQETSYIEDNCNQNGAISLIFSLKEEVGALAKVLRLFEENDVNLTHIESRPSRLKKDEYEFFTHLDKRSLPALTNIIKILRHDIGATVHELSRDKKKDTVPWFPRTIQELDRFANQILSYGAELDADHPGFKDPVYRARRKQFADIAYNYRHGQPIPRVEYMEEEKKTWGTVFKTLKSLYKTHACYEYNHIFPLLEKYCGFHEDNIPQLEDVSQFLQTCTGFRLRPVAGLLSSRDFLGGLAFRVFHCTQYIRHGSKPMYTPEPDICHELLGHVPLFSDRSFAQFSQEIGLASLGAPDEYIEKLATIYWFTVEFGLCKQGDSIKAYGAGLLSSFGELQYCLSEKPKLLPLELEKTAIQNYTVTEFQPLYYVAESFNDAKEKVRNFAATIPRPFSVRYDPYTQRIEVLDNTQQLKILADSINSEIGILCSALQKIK

CCOC(=O)[C@H](CCc1ccccc1)N[C@@H](C)C(=O)N1CCC[C@H]1C(=O)O [ENP, Enalapril]
TUNEL-positive cardiomyocytes ([1]; treated groups vs DOX group): reduction | body weight (Rat body weight): partially restored | serum ALT and AST levels (DOX-induced CHF rats [2]; treated groups vs DOX group, experiment I): markedly reduced | LVEF and LVFS ([3]; DOX + ENP 1.8 mg/kg vs DOX group, p < 0.001): significantly higher

N[C@@H](Cc1ccccc1)C(=O)O [phenylalanine]
serum phenylalanine concentration (phenylalanine metabolism; experiment II, DOX + phenylalanine 280 mg/kg, BH4 14 mg/kg or SXT 16 g/kg): 100.715 µM | increase in serum phenylalanine levels (phenylalanine metabolism; oral phenylalanine, compared to the DOX group): 16.92% | DOX-induced cardiotoxicity in H9C2 cells (cell viability, SOD, CK, LDH, MDA) (H9C2 cells): exacerbated | hepatic and cardiac MDA (DOX-induced CHF rats [4]; [11]): marked MDA elevation | hepatic and cardiac SOD activity (DOX-induced CHF rats [4]; [11]): pronounced suppression | ROS production and PTGS2 expression in the heart (DOX-induced CHF rats [4]; co-treatment with DOX): upregulating | mitochondrial ultrastructure of heart (electron microscopy) (heart tissues): more pronounced | DOX-induced cardiac injury and collagen accumulation (H&E and Masson) [1, 12]: exacerbated | PAH expression in heart tissue [5]: further exacerbated | PAH expression in liver tissue [5]: further exacerbated | DOX-induced increases in serum levels of BNP, CK, LDH, ALT and AST (DOX-induced CHF rats [2]; [12]): largely promoted | LVEF and LVFS / DOX-induced cardiac dysfunction ([3]; experiment II, DOX + Phe 280 mg/kg, BH4 14 mg/kg or SXT 16 g/kg vs DOX group): lower

O=c1c2cc(O[C@@H]3O[C@H](CO)[C@@H](O)[C@H](O)[C@H]3O)c(O)cc2oc2cc(O)c([C@@H]3O[C@H](CO)[C@@H](O)[C@H](O)[C@H]3O)c(O)c12 [Neomangiferin]
pKd [6]: 5.24 and > 5.00 | thermal stability of PAH protein (CETSA) [7]: better thermal stability | non-cytoxic concentration (AML12 cells [8]): 5 to 20 µM | DOX-induced AML12 cell viability (AML12 cells [8]; DOX 1 µM, 24 h, three concentrations of compound): alleviated | DOX-induced oxidative stress (SOD, MDA) (AML12 cells [9]): alleviated | PAH activity (enzyme activity assay) [10]: significantly increase | phenylalanine levels in AML12 cells increased by DOX ([10]; BH4 10 μM, timosaponin B-II, neomangiferin, anemarrhenasaponin I 5, 10, 20 μM, timosaponin AIII 0.1, 0.2, 0.5 μM): significantly reduce
